Source: US20210238169A1, “PROCESS FOR PREPARING A COMPOUND OF FORMULA (XIII)” (PULMOCIDE LIMITED, priority 2014, published 2021)

Columns and labels:
[1] = test system: Aspergillus fumigatus (ATCC 13073); experiment: Extended prophylactic dosing: CFU in lung and GM in BALF and serum; type: in vivo, mice
Description: (§1) Aspergillus fumigatus (ATCC 13073 [strain: NIH 5233], American Type Culture Collection, Manassas, Va., USA) was grown on Malt agar (Nissui Pharmaceutical, Tokyo, Japan) plates for 6-7 days at RT (24±1° C.). Spores were aseptically dislodged from the agar plates and suspended in sterile distilled water with 0.05% Tween 80 and 0.1% agar. On the day of infection, spore counts were assessed by haemocytometer and the inoculum was adjusted to obtain a concentration of 1.67×10^8 spores mL^−1 of physiological saline.
(§2) On day 0, animals were infected with the spore suspension (35 μL intra-nasally).
(§3) Test compounds were administered intra-nasally (35 μL of a suspension of 0.08-2.00 mg/mL in physiological saline) once daily, 30 min before infection on day 0 and then on days 1, 2 and 3 (representing prophylactic treatment) or on days 1, 2 and 3 only (representing therapeutic treatment). For extended prophylactic treatment, test compounds (35 μL of a suspension of 0.0032 or 0.016 mg/mL in physiological saline) were administered intra-nasally once daily for seven days; then 30 min before infection on day 0, and thereafter, either on days 1, 2 and 3 after infection, or on day 0 only. The effects of these treatment paradigms were compared with those obtained when treatment was restricted to one day and 30 min before inoculation and then on days 1, 2 and 3 post infection; or reduced still further to one day and 30 min before infection only.
(§4) Six hours after the last dose, animals were anesthetised, the trachea was cannulated and BALF was collected. The total number of alveolar cells was determined using a haemocytometer, and the numbers of alveolar macrophages and neutrophils were determined by FACS analysis (EPICS® ALTRA II, Beckman Coulter, Inc., Fullerton, Calif., USA) using anti-mouse MOMA2-FITC (macrophage) or anti-mouse 7/4 (neutrophil), respectively, as previously reported (Kimura et al., 2013). The levels of IFN-γ and IL-17 in BALF, and IL-6 and TNFα in serum were determined using Quantikine® mouse IFN-γ, IL-17, IL-6 or TNF-α ELISA kit (R&D systems, Inc., Minneapolis, Minn., USA) respectively. MDA, an oxidative stress marker, was assayed using OxiSelect® TBARS Assay Kits (MDA Quantitation; Cell Biolabs Inc, San Diego, Calif., USA). Aspergillus GM in serum was determination using Platelia GM-EIA kits (Bio-Rad Laboratories, Redmond, Wash., USA). Cut-off index was calculated by the formula: Cut-off index=OD in sample/OD in cut-off control provided in kit. For tissue fungal load assays, 100 mg of lung tissue was removed aseptically and homogenized in 0.2 mL of 0.1% agar in sterile distilled water. Serially diluted lung homogenates were plated on Malt agar plates (50 μL/plate), and incubated at 24±1° C. for 72 to 96 h. The colonies of A. fumigatus on each plate was counted and the fungal titre presented as CFU per gram of lung tissue.

[2] = test system: Aspergillus fumigatus (ATCC 13073); experiment: IL-6 and TNFα levels in serum of Aspergillus fumigatus infected mice; type: in vivo
Description: as §1, §2
as §3, with “([…])” for “(35 μL of a suspension of 0.08-2.00 mg/mL in physiological saline)”
as §4

[3] = days dosed −1, 0, 16 μg/mL intra-nasally
[4] = days dosed −1 to +3, 3.2 μg/mL intra-nasally
[5] = days dosed −1 to +3, 16 μg/mL intra-nasally
[6] = days dosed −7 to 0, 16 μg/mL intra-nasally
[7] = days dosed −7 to +3, 3.2 μg/mL intra-nasally
[8] = days dosed −7 to +3, 16 μg/mL intra-nasally
[9] = Prophylactic Treatment, 0.08 mg/mL intra-nasally
[10] = Prophylactic Treatment, 0.4 mg/mL intra-nasally
[11] = Prophylactic Treatment, 2 mg/mL intra-nasally
[12] = Therapeutic Treatment, 0.4 mg/mL intra-nasally
[13] = Therapeutic Treatment, 2 mg/mL intra-nasally
[14] = Therapeutic Treatment, 10 mg/mL intra-nasally

Cc1cc(N2CCN(c3ccc(C(=O)Nc4ccc(F)cc4)cc3)CC2)ccc1OC[C@@H]1CO[C@@](Cn2cncn2)(c2ccc(F)cc2F)C1 [Compound (I), 4-(4-(4-(((3R,5R)-5-((1H-1,2,4-triazol-1-yl)methyl)-5-(2,4-difluorophenyl)tetrahydrofuran-3-yl)methoxy)-3-methylphenyl)piperazin-1-yl)-N-(4-fluorophenyl)benzamide]
CFU in lung [1, 3]: 13.1 ± 2.6 /mg of lung | CFU in lung, % inhibition [1, 3]: 62% | GM in BALF [1, 3]: 4.5 ± 0.50 COI | GM in BALF, % inhibition [1, 3]: 12% | GM in serum [1, 3]: 4.0 ± 0.88 COI | GM in serum, % inhibition [1, 3]: 7% | CFU in lung [1, 4]: 9.5 ± 3.3 /mg of lung | CFU in lung, % inhibition [1, 4]: 73% | GM in BALF [1, 4]: 2.8 ± 0.71 COI | GM in BALF, % inhibition [1, 4]: 45% | GM in serum [1, 4]: 2.2 ± 0.69 COI | GM in serum, % inhibition [1, 4]: 49% | CFU in lung [1, 5]: 6.1 ± 2.8 /mg of lung | CFU in lung, % inhibition [1, 5]: 82% | GM in BALF [1, 5]: 2.2 ± 0.61 COI | GM in BALF, % inhibition [1, 5]: 57% | GM in serum [1, 5]: 1.6 ± 0.41 COI | GM in serum, % inhibition [1, 5]: 63% | CFU in lung [1, 6]: 6.7 ± 1.7 /mg of lung | CFU in lung, % inhibition [1, 6]: 81% | GM in BALF [1, 6]: 2.3 ± 0.52 COI | GM in BALF, % inhibition [1, 6]: 55% | GM in serum [1, 6]: 1.7 ± 0.59 COI | GM in serum, % inhibition [1, 6]: 60% | CFU in lung [1, 7]: 8.3 ± 2.0 /mg of lung | CFU in lung, % inhibition [1, 7]: 76% | GM in BALF [1, 7]: 2.6 ± 0.36 COI | GM in BALF, % inhibition [1, 7]: 49% | GM in serum [1, 7]: 1.8 ± 0.43 COI | GM in serum, % inhibition [1, 7]: 58% | CFU in lung [1, 8]: 5.0 ± 2.3 /mg of lung | CFU in lung, % inhibition [1, 8]: 86% | GM in BALF [1, 8]: 1.7 ± 0.39 COI | GM in BALF, % inhibition [1, 8]: 67% | GM in serum [1, 8]: 1.4 ± 0.20 COI | GM in serum, % inhibition [1, 8]: 67% | IL-6 concentration in serum [2, 9]: 159 ± 73.3 pg/mL | IL-6 in serum, % Inhibition [2, 9]: 44% | TNFα concentration in serum [2, 9]: 11.8 ± 5.9 pg/mL | TNFα in serum, % Inhibition [2, 9]: 54% | IL-6 concentration in serum [2, 10]: 86.3 ± 46.9 pg/mL | IL-6 in serum, % Inhibition [2, 10]: 70% | TNFα concentration in serum [2, 10]: 7.3 ± 3.5 pg/mL | TNFα in serum, % Inhibition [2, 10]: 71% | IL-6 concentration in serum [2, 11]: 44.5 ± 12.2 pg/mL | IL-6 in serum, % Inhibition [2, 11]: 84% | TNFα concentration in serum [2, 11]: 4.7 ± 0.4 pg/mL | TNFα in serum, % Inhibition [2, 11]: 82% | IL-6 concentration in serum [2, 12]: 51.7 ± 16.8 pg/mL | IL-6 in serum, % Inhibition [2, 12]: 82% | TNFα concentration in serum [2, 12]: 6.2 ± 0.5 pg/mL | TNFα in serum, % Inhibition [2, 12]: 76% | IL-6 concentration in serum [2, 13]: 44.2 ± 11.4 pg/mL | IL-6 in serum, % Inhibition [2, 13]: 84% | TNFα concentration in serum [2, 13]: 5.5 ± 0.7 pg/mL | TNFα in serum, % Inhibition [2, 13]: 79% | IL-6 concentration in serum [2, 14]: 35.9 ± 10.4 pg/mL | IL-6 in serum, % Inhibition [2, 14]: 87% | TNFα concentration in serum [2, 14]: 4.9 ± 0.6 pg/mL | TNFα in serum, % Inhibition [2, 14]: 81%
